The results in this text go back to US20190254299A1, “METHODS OF HANDLING AVOCADOS AND SYSTEM” (AGROFRESH INC., priority 2012, published 2019).

Holding throughout (format): in vivo
Assay [1] has as its system avocados. The assay is described as follows: Skin color rating of avocados, Example 1 (California). Further details: key: 1 = full green, 3 = half green/half brown, 5 = purple-black. From the text: (§1) Avocado skin color was rated using the following scale: • 1=full green • 2=green with traces of brown • 3=half green and half brown • 4=brown with traces of green • 5=purple-black
Avocados were harvested in Oxnard, Calif., USA and packed in cardboard boxes and shipped to Sacramento, Calif, USA. After 2 days of transportation part of the avocados were packed in MAP bags. The appropriate weight of avocados was placed in each bag after harvest and shipment. Bags were placed in RPC (Recycle Plastic Container) carrying devices. Avocados then were stored at room temperature (22° C.).
The Test Protocol that was used was as follows. 60 MAP bags were packed. Each hag held approximately 1.7 kg (3.8 lb) of avocados. Three such bags were packed in each RPC. Total weight of avocados in MAP bags was approximately 102 kg. Approximately 51 kg of avocados were placed into RPC identical to those used for the MAP bags. The MAP-packaged avocados were packaged as follows: Nine fruits, approximately 1.7 kg (3.8 lb) were carefully placed into MAP bags, and the bags were sealed by twisting the open side of the bag, folding down the twisted end, and placing a rubber band around the twisted and folded end of the bag.
Avocados were harvested with a very high firmness (not possible to measure with FTA Machines (Firmness Texture Analyzer)). The FTA higher limit was 156 N (351 bf). To monitor the ripening process of the avocados, extra fruits were bagged in MAP bags and the firmness was monitored every day, twice a day until the fruits achieve an average firmness of 111 N (25 lbf). All avocados were kept at room temperature (22° C.) until achieving an average firmness of 111 N (251 bf).
After achieving an average firmness of 111 N (25 lbf) the avocados were randomly divided into treatment sets as follows:
On the same day the avocados achieved 111 N (25 lbf) of average firmness, each treatment set was marked, placed in a hermetical chamber at room temperature (22° C.). All chambers were of equal size and packed the same way. Treatment was for 12 hr. In the chambers for the 3 “MCP” treatment groups, at the beginning of the treatment period, SmartFresh™ SmartTabs™ tablets (AgroFresh, Inc.) were placed in the chamber. The amount of SmartFresh™ SmartTabs™ tablets was chosen to achieve the indicated concentration of 1-methylcyclopropene in the atmosphere of the chamber. The SmartTabs™ tablets were contacted with water in the normal way to release 1-MCP.
After the treatment in the chambers, the RPCs were moved into racks at room temperature for storage and observation. Avocados remained in the same bags throughout the packing, treatment in the chamber, and subsequent storage. Evaluation for skin color and pulp firmness was as follows. Day “zero” was the day the avocados were removed from the chamber and placed in storage. Each test result was the average of 12 fruits.

Assay [2] concerns avocados. The assay is described as follows: Skin color on day 8, Example 3. Further details: key: 1: full green; 2: green with traces of brown; 3: half green and half brown; 4: brown with traces of green; 5: purple-black. The following applies: 1000 ppb MCP. The procedure:
as §1
Avocados were harvested in Mexico and shipped to Pennsylvania, USA. 48 fruits were tested. When the fruits reached pulp firmness of 71 N (16 lbf), half of the fruits were exposed to atmosphere having 1000 ppb of MCP at 21.1° C. for 12 hours and half were not. Immediately after treatment, fruits were placed in MAP bags. The number of fruits per bag was either 1, 2, 3, 4, or 10. Two MCP-treated fruits were left out of any MAP, and two fruits not exposed to MCP were also left out of any MAP. All fruits were then stored at 21° C. (70° F.). On the eighth day after exposure to atmosphere containing MCP, fruits were tested with the following results. The results shown are the averages for all the fruits tested in each category.
Avocados were harvested and shipped as in Example 2. Treatment was performed when pulp thinness reached 98 N (22 lbf). 50 fruits were tested. Otherwise the treatment and handling was the same as in Example 2. Results (average of all fruits tested in each category) were as follows: […]

The subject of assay [3] is avocados. The assay can be described thus: Additional RipeLock applications, Example 8. The following applies: seven days at 22° C. From the text: Avocados are harvested, handled, and tested as in previous examples. Control samples have no bag and no SmartFresh (1-methylcyclopropene or 1-MCP) application. SmartFresh samples have no bags but with 500 ppb SmartFresh (1-methylcyclopropene or 1-MCP) application. MAP samples use the 31b MAP bags but no SmartFresh (1-methylcyclopropene or 1-MCP) application. RipeLock samples have the 3 lb MAP bags with various concentrations of SmartFresh (1-methylcyclopropene or 1-MCP) applications, including 10 ppb, 50 ppb, 100 ppb, 500 ppb, 1500 ppb, 3000 ppb, and 4500 ppb. Average fruit in each sample is about 3.8 lb. Ethylene is treated after packing at 200 ppm for twenty-four hours. Evaluations are performed seven days at 22° C. after SmartFresh (1-methylcyclopropene or 1-MCP) applications.
Data of pulp firmness of avocado tested are shown in FIG. 6 (with ethylene) and FIG. 7 (without ethylene).

Consider `CC1=CC1` [MCP, 1-methylcyclopropene], for which the “Skin Color ratings” value was found to be 1.7 with avocados [1] (MAP bag, 300 ppb MCP, day 0); 2.9 in the assay on avocados [1] (MAP bag, 300 ppb MCP, day 1); 2.3 with avocados [1] (MAP bag, 300 ppb MCP, day 2); 2.8 in the assay with avocados [1] (MAP bag, 300 ppb MCP, day 3); 2.3 in the assay with avocados [1] (MAP bag, 300 ppb MCP, day 4); 1.7 with avocados [1] (MAP bag, 600 ppb MCP, day 0). The “Skin Color ratings” value worked out at 2.3 in the assay on avocados [1] (MAP bag, 600 ppb MCP, day 1); 2.3 in the assay with avocados [1] (MAP bag, 600 ppb MCP, day 2); 2.2 in the assay with avocados [1] (MAP bag, 600 ppb MCP, day 3); 2.1 in the assay on avocados [1] (MAP bag, 600 ppb MCP, day 4); 1.6 in the assay on avocados [1] (MAP bag, 900 ppb MCP, day 0); 2.3 with avocados [1] (MAP bag, 900 ppb MCP, day 1). Besides, the “Skin Color ratings” value is 2.3 with avocados [1] (MAP bag, 900 ppb MCP, day 2); 2.3 with avocados [1] (MAP bag, 900 ppb MCP, day 3); 2.4 in the assay with avocados [1] (MAP bag, 900 ppb MCP, day 4); 2.6 in the assay with avocados [1] (No Bag, 600 ppb MCP, day 0); 3.0 with avocados [1] (No Bag, 600 ppb MCP, day 1); 2.8 in the assay on avocados [1] (No Bag, 600 ppb MCP, day 2). For the same compound, the “Skin Color ratings” value with avocados [1] (No Bag, 600 ppb MCP, day 3) is listed as 3.8; in the assay with avocados [1] (No Bag, 600 ppb MCP, day 4), 3.4. Moreover, the entries for the “Skin Color on Day 8, Color Rating” value in the assay with avocados [2] (MAP bag) and with avocados [2] (no bag) were 4.2 and 5, respectively. Further, the “firmness and skin color by application rate” value in the assay on avocados [3] (rate of 1500 ppb in MAP bags) is “best result for both firmness and skin color”. Besides, the “combined effect of MAP bags and SmartFresh applications” value with avocados [3] (rates equal or higher than 500 ppb) is “synergistic effect”.
